Measurements taken from patent US20220193240A1, “TRIGGERABLE HYDROGEL COMPOSITIONS AND RELATED METHODS” (Massachusetts Institute of Technology, priority 2016, published 2022).

Tests used:
[1] = pH 7.4
Protocol: Permeability measurement. The measurement of permeability of TTHs was carried out on a Franz diffusion cell using a TTH membrane (thickness, 3 mm). […] At each time point, 0.4 mL was sampled from the acceptor compartment and 0.4 mL fresh PBS was supplemented through the sampling port of the cell.

[2] = In vivo pharmacokinetics of lumefantrine with model fit; design: species or system Yorkshire pig
Protocol: In vivo studies. All animal experiments were performed in accordance with protocols approved by the Committee on Animal Care at MIT. A large animal model, 45-55 kg Yorkshire pigs, was chosen as its gastric anatomy similar to humans and is widely used in evaluating devices in the GI space. Pigs were sedated with Telazol (tiletamine/zolazepam) 5 mg kg−1, xylazine 2 mg kg−1, and atropine 0.05 mg kg−1, and/or isoflurane (1˜3% inhaled), and an endoscopic overtube (US Endoscopy) was placed in the esophagus under endoscopic visual guidance during esophageal intubation. To evaluate the TTH for its ability to be triggered to dissolve into solution with biocompatible agents, the retrievable TTH strips and methyl blue-labeled large TTH sheets were administered via the overtube into the stomach. PBS (0.5 L) containing EDTA (40 mM), GSH (20 mM), and NaHCO3 (60 mM) was administered via the overtube after the gastric placement of the TTH samples. Intra-gastric endoscopy videography was used for image capture of the dissolution of the TTH sheets. The TTH strips were retrieved endoscopically after 1 h in the gastric cavity. Pigs that were not administered EDTA/GSH and therefore the strips and sheets were only exposed to gastric fluid were used as control experiments. To assess TTHs for the ability to achieve gastric retention, radiopaque barium sulfate-labeled capsule-like TTHs were administered via the overtube into the gastric cavity (one TTH device per pig). Radiographs were performed every 48-72 h to monitor the integrity and transit of the devices as well as any radiographic evidence of bowel obstruction or perforation. […] During the evaluation of the TTH systems for gastric residence and drug delivery the animals were monitored twice daily for any signs of abnormal feeding and stooling patterns. Additionally the animals were monitored clinically for any evidence of gastrointestinal obstruction as well as radiographically every 48-72 hours for evidence of obstruction and/or perforation. […]

permeability through the TTH [1] [mL h·cm−2] | clearance from blood ([2]; after a single administration) | absorption rate constant ([2]; first order model fit) [day⁻¹] | elimination rate constant ([2]; free drug, model fit, estimated) [day⁻¹] | Compound
0.082 |  |  |  | C[S+](C)[O-] [dimethyl sulfoxide]
 | rapidly cleared from blood | 1.17 | 1.17 | CCCCN(CCCC)CC(O)c1cc(Cl)cc2c1-c1ccc(Cl)cc1/C2=C/c1ccc(Cl)cc1 (stereo not shown) [free lumefantrine, lumefantrine]
